Results from US10485868B2, “Tn vaccine composition and method for alleviating inflammation” (TAIPEI MEDICAL UNIVERSITY, priority 2017, dated 2019).

Tests used:
[1] = test system: human gingival fibroblasts (HGFs); assay: Tn expression in HGFs, immunofluorescent staining with anti-Tn antibody; format: cell-based; conditions: for Tn levels in HGFs, responsiveness to purified cytokine: 0, 10, 30, 100 ng/ml for 24 hours; for Tn levels in HGFs: TNF-α 30 ng/ml
Description: FIG. 6A. Immunohistochemical analysis of Tn antigen in inflammatory tissues (top) and normal tissues (bottom). Tn staining in atherosclerotic aorta (left; labeled Aorta), bronchitis tissue (middle; labeled Bronchi), and periodontitis tissue (right; labeled Gingiva). Brown color represents Tn antigen expression. FIG. 6B. HGFs were treated with conditioned media from U937 cells stimulated with LPS (0, 10, 30 and 100 ng/ml; 24 hours) for 24 hours and then stained with purified rabbit anti-Tn antibody (in red) and DAPI (in blue). FIG. 6C. U937 cells were treated with LPS (0, 10, 30 and 100 ng/ml) for 24 hours, the secretions of TNF-α were analyzed by ELISA. Original magnifications (100×). Scale bar, 50 μm. FIG. 6D. U937 cells were treated with LPS (0, 10, 30 and 100 ng/ml) for 24 hours, the secretions of IL-6 were analyzed by ELISA. Original magnifications (100×). Scale bar, 50 μm. FIG. 6E. U937 cells were treated with LPS (0, 10, 30 and 100 ng/ml) for 24 hours, the secretions of IL-1β were analyzed by ELISA. Original magnifications (100×). Scale bar, 50 μm.
FIGS. 7A and 7B show pro-inflammatory cytokines, TNF-α and IL-6, up-regulates Tn levels in HGFs. FIG. 7A. The effect of pro-inflammatory cytokines on Tn expression in HGFs. HGFs were treated with purified TNF-α, IL-6 and IL-1β at the concentration of 0, 10, 30, and 100 ng/ml for 24 hours and then stained with purified rabbit anti-Tn antibody (in red) and DAPI (in blue). Original magnification (100×); scale bar, 50 μm. FIG. 7B. Time course analysis of Tn expressions in HGFs after TNF-α treatment. HGFs were treated with purified TNF-α at the concentration of 30 ng/ml for 4, 8, 12, 24 and 48 hours and then stained with purified rabbit anti-Tn antibody (in red) and DAPI (in blue) (Magnifications 630×; scale bar, 50 μm). The experiments were repeated at least three times.
(§1) FIG. 9A. Effect of TNF-α and demethylation agents on the methylation level of COSMC gene in HGFs. The comparison of methylation changes is in the HGFs which were treated with or without TNF-α and demethylation agents. The UCSC genome browser illustrated the orientation and the first exon of COSMC (blue bar), GC percent (black scale bar), CpG islands (green bar) and the sequencing region of bisulfite pyrosequencing (COSMC_py02, black bar). […] FIG. 9B. HGFs were co-treated with purified TNF-α and different concentrations of 5-aza-dC (0, 1, 2 and 5 μM) for 24 hours and then immunofluorescent stained with rabbit anti-Tn antibody (in red) and DAPI (in blue). Magnification 630×; Scale bar, 50 μm.

COSMC gene = assay: Bisulfite pyrosequencing of COSMC gene promoter methylation in HGFs; format: cell-based, human
Description: as §1

NF-κB P65 = assay: Immunohistochemistry of NF-κB in lung; format: in vivo, mice; conditions: hyperoxia group immunized with carrier protein compared with control and Tn-treated hyperoxia groups
Description: After a routine deparaffinization step, heat-induced epitope retrieval was performed by immersing the slides in 0.01 mol/L sodium citrate buffer (pH 6.0). To block the endogenous peroxidase activity and nonspecific antibody binding, sections were first preincubated for 1 hour at room temperature in 0.1 mol/L PBS containing 10% normal goat serum and 0.3% H2O2 before incubating for 20 hours at 4° C. with the rabbit polyclonal anti-NF-κB P65 (1:50 dilution; Abcam Inc., Cambridge, Mass., USA) as primary antibody. The sections were then treated for 1 hour at room temperature with biotinylated goat anti-rabbit IgG (1:200, Vector, Calif., USA). This was followed by reaction with the reagents from an ABC kit (Avidin-Biotin Complex, Vector, Calif., USA) according to the manufacturer's recommendations, and the reaction products were visualized by diaminobenzidine substrate kit (Vector, Calif., USA). All immunostained sections were viewed and photographed by Olympus BX 43.

C57BL/6NCrlBltw mice = assay: Serum anti-Tn antibody titers by ELISA after immunization; format: in vivo; conditions: mice immunized subcutaneously with adjuvant, versus background before immunization
Description: Five-week-old female C57BL/6NCrlBltw mice were subcutaneously immunized with Tn vaccine at a dose of 20 μg or carrier protein (10 μg of mFc(Cys42-Tn)Histag2) in the presence of adjuvant in 100 μl for four times at biweekly intervals and one additional immunization at one week later after the fourth immunization. Blood was withdrawn from facial vein for anti-Tn antibody titer measurement using enzyme-linked immunosorbent assay (ELISA) on days 0, 42, and 49. Four days after the last immunization, mice were exposed to room air (RA) or oxygen-enriched atmosphere (100% O2) for up to 96 hours. Oxygen exposures was carried out in a transparent 60×50×40-cm Plexiglas chamber into which oxygen was continuously delivered at 4 l/min and oxygen levels were monitored with a ProOx Model 110 monitor (NexBiOxy, Hsinchu, Taiwan) and humidity was checked daily and the value was 60-80%. We obtained four study groups as follows: carrier protein+RA (n=6), Tn vaccine+RA (n=6), carrier protein+O2 (n=6), and Tn vaccine+O2 (n=5). Mice were deeply anesthetized with an overdose of isoflurane after 96 hours O2 treatment. […] This washing procedure was repeated two more times for each animal, with the three washes being pooled, and the total volume recorded. […]
GST(Cys6-Tn) was coated on 96-well flat-bottomed plates (Falcon Labware, Lincoln Park, N.J., USA) at a concentration of 1.5 μg/ml. […] Absorbance was read at 410 nm.

COSMC = assay: qPCR of COSMC mRNA in HGFs; format: cell-based, human; conditions: 100 ng/ml, 24 hours
Description: (§2) FIG. 8A. Effect of TNF-α and demethylation agents (5-aza-dC) on mRNA expression of COSMC and T-synthase in HGFs. qPCR was used to analyze COSMC and T-synthase mRNA expression in HGFs upon TNF-α and 5-aza-dC treatment. The mRNA expression of COSMC and T-synthase was normalized to GAPDH and statistically analyzed. (*: p<0.05 compared with TNF-α only) Calculations of relative gene expression (normalized to GAPDH reference gene) were performed according to the ΔΔCT method. Fidelity of the PCR reaction was determined by melting temperature analysis. FIG. 8B. Western blotting was used to analyze the protein levels of Cosmc and T-synthase upon 6 and 24 hours of TNF-α treatment. FIG. 8C. and FIG. 8D. HGFs were treated with purified TNF-α for 6 or 24 hours and then immunofluorescent stained with anti-Cosmc (in red) and anti-T-synthase antibodies (in green) and DAPI (in blue). Original magnification (100×); scale bar, 50 μm.

T-synthase = assay: qPCR of T-synthase mRNA in HGFs; format: cell-based, human; conditions: 100 ng/ml, 24 hours
Description: as §2

With `Nc1ncn([C@H]2C[C@H](O)[C@@H](CO)O2)c(=O)n1` [5-aza-dC, reference compound] the “TNF-α-induced Tn expression” value ([1]; HGFs co-treated with TNF-α and 0, 1, 2, 5 μM for 24 hours) was “can be suppressed” and the “TNF-α-induced COSMC gene hypermethylation” value (COSMC gene; HGFs treated with TNF-α and demethylation agent) was “can be suppressed”.
With “Fc fragment-7 repeats of Pro-Cys-Cys-Gly-Cys-Cys-Gly-Cys-Gly-Cys-N-succinimidyl-6-maleimidocaproate [carrier protein]” the “NFκB immunoreactivity in lung” value (NF-κB P65) was “more intense NFκB immunoreactivity”, the “serum anti-Tn antibody titers” value (C57BL/6NCrlBltw mice) was “low serum Tn antibody titers” and the “serum anti-Tn antibody titers” value (C57BL/6NCrlBltw mice; listed as carrier polypeptide) was “background serum anti-Tn antibody levels”.
In the case of tumor necrosis factor-α [TNF-α], the “COSMC mRNA in HGFs” value (COSMC) was “significantly down-regulated”, the “T-synthase mRNA level in HGFs” value (T-synthase) was “did not significantly alter” and the “Tn levels in HGFs, responsiveness to purified cytokine” value (from here on “Tn levels in HGFs, responsiveness”) [1] was “most responsive”. The “Tn levels in HGFs” value ([1]; 8 to 12 hrs) was “Gradual increase”, the “Tn levels in HGFs” value ([1]; 4 hrs) was “essentially unchanged” and the “Tn levels in HGFs” value ([1]; after 24 hours) was “gradually decreased”. For the same molecule, the “Tn levels in HGFs” value ([1]; after 48 hours) was “markedly decreased” and the “methylation of four CpG sites in the promoter of the COSMC gene” value (COSMC gene; TNF-α treatment of HGFs) was “significantly hypermethylated”.
For interleukine-6 [IL-6], the “Tn levels in HGFs, responsiveness” value [1] was “moderately responsive”.
interleukin-1β [IL-1β] was tested, and the “Tn levels in HGFs, responsiveness” value [1] was “not responsive”.
